Test results taken from US8765695B2, “Use of ginsenoside RG1, its metabolites ginsenoside RH1 and/or PPT” (priority 2007, dated 2014).
Marks after values point to notes of the source that are not given here.

Columns and labels:
[1] = test system: sperms in tail of epididymis; assay: Gossypol aspermatogenesis model: quality of sperms from tail of epididymis by CASA; assay type: in vivo,  male mice; conditions: 14th day
male mice = assay: Test of sexual ethology: bestriding time and mating frequency of male mice with estral female mice; assay type: in vivo, Kunming mice
Protocol: Kunming male mice (age 10 weeks, weight body 32-36 g), Kunming female mice (age 10 weeks, weight body 30-34 g), as purchased from Laboratory Animal Center of Chinese Academy of Medical Sciences (with the number of certificate SCXK (Jing) 2005-0004), were placed in a clean grade animal house alternately in light and in darkness (12 h:12 h), while taking water and food freely. The test started after the mice had adapted to the environment in the animal house for 5 days. During the period of adapting to the environment, male mice and female mice were isolated from each other.
In order to correctly reflect the change of male mice in sexual function, we prepared estral female mice by ectomizing their ovaries and inducing them by application of external hormone. After anesthetized with chloral hydrate, female mice were subjected to the steps of ectomizing bilateral ovaries by dorsal approach, ligating uterine tube residue end, and suturing skin, followed by recuperating for one week. The induction by application of hormone was conducted by reference to the literature (Masayoshi Nomura, et al, Physiology & Behavior 91 (2007) 223-228), comprising the steps of subcutaneously injecting estradiol benzoate (30 μg per mouse, is) at 48 h prior to use, and subcutaneously injecting progesterone (500 μg per mouse, is) at 4 h prior to use, to thereby obtain estral female mice.
Estral female mice were put in a ratio of 2:1 to male mice inside a mating box in which male mice were placed. They were trained for consecutive 5 days, 12 min each day. When the mating reaction of male mice became stable, the mice were grouped with the consideration that the bestriding time in each group of mice was substantially the same, while discarding the mice that had relatively weak reaction and no reaction.
In darkness, ethological test was carried out in the rearing cage of male mice. Estral female mice and male mice were kept in a ratio of 2:1 inside the same box for 12 min, during which period the bestriding time and mating frequency of the male mice were observed.
All of the values were expressed by using mean value and standard error (M±SEM), the analytic method used was one-way analysis of variance (ANOVA), and the statistic results were expressed by double star method, i.e., *<0.05, **<0.01.

PDE5 = PDE5 (Homo sapiens, UniProt O76074); assay: Inhibition effect on PDE5 (cGMP degradation, radioimmune autograph technique); assay type: biochemical; conditions: read-out: Inhibition rate on PDE5
[2] = 5 mg/kg every day + gossypol 50 mg/kg every other day
[3] = 10 mg/kg every day + gossypol 50 mg/kg every other day
[4] = 5 mg/kg, 1st day, 12 min observation
[5] = 10 mg/kg, 1st day, 12 min observation

Compound: CC(C)=CCC[C@](C)(O)[C@H]1CC[C@]2(C)[C@@H]1[C@H](O)C[C@@H]1[C@@]3(C)CC[C@H](O)C(C)(C)[C@@H]3[C@@H](O)C[C@]12C [Ppt]
- Number of sperms [1, 2]: 141 ± 18** 10^6 · ml−1
- Motility of sperms (A + B) ([1]; 5 mg/kg every day + gossypol): 38 ± 11 %
- Viability rate of sperms ([1]; 5 mg/kg every day + gossypol): 55 ± 9 %
- Number of sperms [1, 3]: 178 ± 54** 10^6 · ml−1
- Motility of sperms (A + B) ([1]; 10 mg/kg every day + gossypol): 39 ± 9 %
- Viability rate of sperms ([1]; 10 mg/kg every day + gossypol): 56 ± 7 %
- bestriding time of mice (male mice; 5 mg/kg, 1st day): 3.3 ± 2.3 min
- mating frequency of mice (male mice; [4]): 11.4 ± 6.8
- bestriding time of mice (male mice; 5 mg/kg, 4th day): 3.9 ± 4.2 min
- mating frequency of mice (male mice; 5 mg/kg, 4th day): 15.4 ± 8.2
- bestriding time of mice (male mice; 5 mg/kg, 8th day): 4.5 ± 3.8 min
- mating frequency of mice (male mice; 5 mg/kg, 8th day): 27.4 ± 8.7
- bestriding time of mice (male mice; 5 mg/kg, 12th day): 6.8 ± 3.3 min
- mating frequency of mice (male mice; 5 mg/kg, 12th day): 28.2 ± 9.3
- bestriding time of mice (male mice; 5 mg/kg, 14th day): 7.9 ± 4.4 min
- mating frequency of mice (male mice; 5 mg/kg, 14th day): 29.5 ± 7.7
- bestriding time of mice (male mice; 5 mg/kg, 16th day): 8.3 ± 3.1* min
- mating frequency of mice (male mice; 5 mg/kg, 16th day): 33.5 ± 10.4
- bestriding time of mice (male mice; 5 mg/kg, 18th day): 9.2 ± 3.8* min
- mating frequency of mice (male mice; 5 mg/kg, 18th day): 39.2 ± 8.6*
- bestriding time of mice (male mice; 5 mg/kg, 20th day): 9.1 ± 3.5* min
- mating frequency of mice (male mice; 5 mg/kg, 20th day): 41.7 ± 7.4*
- bestriding time of mice (male mice; 10 mg/kg, 1st day): 2.9 ± 3.4 min
- mating frequency of mice (male mice; [5]): 13.4 ± 6.3
- bestriding time of mice (male mice; 10 mg/kg, 4th day): 3.3 ± 4.1 min
- mating frequency of mice (male mice; 10 mg/kg, 4th day): 15.4 ± 8.4
- bestriding time of mice (male mice; 10 mg/kg, 8th day): 5.1 ± 3.8 min
- mating frequency of mice (male mice; 10 mg/kg, 8th day): 22.8 ± 9.6
- bestriding time of mice (male mice; 10 mg/kg, 12th day): 7.2 ± 3.3 min
- mating frequency of mice (male mice; 10 mg/kg, 12th day): 31.6 ± 8.4
- bestriding time of mice (male mice; 10 mg/kg, 14th day): 8.4 ± 4.2 min
- mating frequency of mice (male mice; 10 mg/kg, 14th day): 33.7 ± 8.5
- bestriding time of mice (male mice; 10 mg/kg, 16th day): 9.4 ± 3.9* min
- mating frequency of mice (male mice; 10 mg/kg, 16th day): 35.3 ± 9.3
- bestriding time of mice (male mice; 10 mg/kg, 18th day): 9.4 ± 3.9* min
- mating frequency of mice (male mice; 10 mg/kg, 18th day): 37.2 ± 8.3*
- bestriding time of mice (male mice; 10 mg/kg, 20th day): 9.4 ± 3.1* min
- mating frequency of mice (male mice; 10 mg/kg, 20th day): 40.2 ± 7.3*

Compound: CCCc1nn(C)c2c(=O)[nH]c(-c3cc(S(=O)(=O)N4CCN(C)CC4)ccc3OCC)nc12 [Sildenafil, reference compound]
- inhibition at 0.0025 µM (PDE5): 71.6%
- inhibition at 0.005 µM (PDE5): 14.6%
- inhibition at 0.01 µM (PDE5): 52.6%
- inhibition at 0.02 µM (PDE5): 83.3%
- inhibition at 0.04 µM (PDE5): 100%

Compound: CC(C)=CCC[C@](C)(O)[C@H]1CC[C@]2(C)[C@@H]1[C@H](O)C[C@@H]1[C@@]3(C)CC[C@H](O)C(C)(C)[C@@H]3[C@@H](O[C@@H]3O[C@H](CO)[C@@H](O)[C@H](O)[C@H]3O)C[C@]12C [Rh1, ginsenoside Rh1]
- Number of sperms [1, 2]: 142 ± 24** 10^6 · ml−1
- Motility of sperms (A + B) ([1]; 5 mg/kg every day + gossypol): 39 ± 8 %
- Viability rate of sperms ([1]; 5 mg/kg every day + gossypol): 56 ± 10 %
- Number of sperms [1, 3]: 143 ± 16** 10^6 · ml−1
- Motility of sperms (A + B) ([1]; 10 mg/kg every day + gossypol): 39 ± 6 %
- Viability rate of sperms ([1]; 10 mg/kg every day + gossypol): 52 ± 5 %
- bestriding time of mice (male mice; 5 mg/kg, 1st day): 2.8 ± 3.2 min
- mating frequency of mice (male mice; [4]): 11.3 ± 4.9
- bestriding time of mice (male mice; 5 mg/kg, 4th day): 3.5 ± 4.1 min
- mating frequency of mice (male mice; 5 mg/kg, 4th day): 13.9 ± 3.3
- bestriding time of mice (male mice; 5 mg/kg, 8th day): 4.1 ± 3.5 min
- mating frequency of mice (male mice; 5 mg/kg, 8th day): 23.5 ± 5.7
- bestriding time of mice (male mice; 5 mg/kg, 12th day): 6.2 ± 2.9 min
- mating frequency of mice (male mice; 5 mg/kg, 12th day): 29.4 ± 4.8
- bestriding time of mice (male mice; 5 mg/kg, 14th day): 8.6 ± 5.2 min
- mating frequency of mice (male mice; 5 mg/kg, 14th day): 33.6 ± 6.1
- bestriding time of mice (male mice; 5 mg/kg, 16th day): 8.7 ± 4.2* min
- mating frequency of mice (male mice; 5 mg/kg, 16th day): 32.2 ± 5.3
- bestriding time of mice (male mice; 5 mg/kg, 18th day): 8.9 ± 3.3* min
- mating frequency of mice (male mice; 5 mg/kg, 18th day): 39.8 ± 9.3*
- bestriding time of mice (male mice; 5 mg/kg, 20th day): 9.2 ± 3.4* min
- mating frequency of mice (male mice; 5 mg/kg, 20th day): 38.1 ± 8.5*
- bestriding time of mice (male mice; 10 mg/kg, 1st day): 3.6 ± 2.7 min
- mating frequency of mice (male mice; [5]): 9.7 ± 5.6
- bestriding time of mice (male mice; 10 mg/kg, 4th day): 3.9 ± 3.8 min
- mating frequency of mice (male mice; 10 mg/kg, 4th day): 14.3 ± 9.5
- bestriding time of mice (male mice; 10 mg/kg, 8th day): 4.0 ± 3.5 min
- mating frequency of mice (male mice; 10 mg/kg, 8th day): 25.7 ± 8.6
- bestriding time of mice (male mice; 10 mg/kg, 12th day): 6.3 ± 2.6 min
- mating frequency of mice (male mice; 10 mg/kg, 12th day): 28.4 ± 10.5
- bestriding time of mice (male mice; 10 mg/kg, 14th day): 8.4 ± 3.1 min
- mating frequency of mice (male mice; 10 mg/kg, 14th day): 32.2 ± 9.3
- bestriding time of mice (male mice; 10 mg/kg, 16th day): 8.9 ± 3.7* min
- mating frequency of mice (male mice; 10 mg/kg, 16th day): 34.1 ± 8.2
- bestriding time of mice (male mice; 10 mg/kg, 18th day): 9.1 ± 3.8* min
- mating frequency of mice (male mice; 10 mg/kg, 18th day): 36.4 ± 6.7*
- bestriding time of mice (male mice; 10 mg/kg, 20th day): 9.3 ± 3.8* min
- mating frequency of mice (male mice; 10 mg/kg, 20th day): 43.4 ± 7.3*
